Peptide text beside a SMILES is read from it.
Assays:
HepG2 cells = assay: HepG2 GAG dependent cholesterol import (with or without heparin); type: cell-based; conditions: HepG2, 10 μM peptide, with or without 100 μg/mL heparin
Procedure: HepG2 cells were seeded on 96-well plates at 10,000 cells per well and grown to confluence. A 2× solution of 500 μM DMPC and 50 μM BODIPY-Cholesterol with or without 100 μg/mL heparin was prepared in serum free EMEM. Peptides were diluted to 20 μM in serum-free EMEM (a 2× solution). Peptides were added to lipid solution in equal parts (60 μL each) and incubated for 1 hour at 37° C. HepG2 cells were serum starved in serum-free EMEM for 1 hour at 37° C. Peptide: Lipid complexes (100 μL total volume per well) were transferred to HepG2 cells for 2 hours at 37° C. Cells were washed, fixed, and intracellular fluorescence was read on Promega GloMax at 475 nm excitation, 500-550 emission. Fluorescence values were background corrected from no treatment conditions. Data are presented ±SD for 2 runs.

[1] = DMPC solubility assay, 0.5 mM DMPC (turbidity reduction); type: biochemical
Method in brief: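 Peptides (100 μM final, or 3.16-100 μM for titrations) incubated with 0.5 mM DMPC in water for 15 minutes at room temperature. Turbidity read as absorbance at 405 nm; EC50 from non-linear regression, mean+SD over two runs.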

In the case of `CC[C@H](C)[C@H](NC(=O)CNC(=O)[C@H](CO)NC(=O)[C@@H](NC(=O)[C@H](Cc1c[nH]c2ccccc12)NC(=O)[C@H](Cc1c[nH]cn1)NC(=O)[C@H](CCC(=O)O)NC(=O)[C@H](Cc1ccccc1)NC(=O)[C@H](CCCNC(=N)N)NC(=O)[C@H](CC(C)C)NC(=O)[C@H](CC(C)C)NC(=O)[C@H](CCCNC(=N)N)NC(=O)[C@H](CCCCN)NC(=O)[C@H](CCCNC(=N)N)NC(=O)[C@H](CC(C)C)NC(=O)[C@H](CCCCN)NC(=O)[C@H](CCCNC(=N)N)NC(=O)[C@H](CC(C)C)NC(=O)[C@@H](N)Cc1c[nH]cn1)[C@@H](C)CC)C(=O)N[C@@H](Cc1ccc(O)cc1)C(=O)N[C@@H](CO)C(=O)N[C@@H](CCC(=O)O)C(=O)N[C@@H](CS)C(=O)N[C@@H](CCCCN)C(=O)N[C@@H](Cc1c[nH]cn1)C(=O)N[C@@H](CC(C)C)C(=O)N[C@H](C(=O)N[C@@H](CCC(N)=O)C(=O)N[C@@H](CCC(=O)O)C(=O)O)[C@@H](C)CC` [T-025] (H-HLRKLRKRLLRFEHWISGIYSECKHLIQE-OH; N-terminus and C-terminus assumed), the “GAG dependence of cholesterol import” value (HepG2 cells) is reported as “rely on GAG binding for cholesterol import activity”, the EC50 ([1]; 3.16-100 μM peptides, 15 minutes) is reported as 25.3 µM and the DMPC solubilizing activity ([1]; FIGS. 2A-2D and 3A-3C) is reported as “significant activity”.

Source: patent US20260115250A1, “METHODS OF TREATING AGE-RELATED MACULAR DEGENERATION” (Character Biosciences, Inc., priority 2022, published 2026)
